The target in assay [1] is T1, CYP11A1 (Homo sapiens, UniProt P05108).
T1 construct: measuring the cellular production of pregnenolone (P) catalyzed by CYP11A1; host or cells: NCI-H295R
T1 sequence (P05108 40-521): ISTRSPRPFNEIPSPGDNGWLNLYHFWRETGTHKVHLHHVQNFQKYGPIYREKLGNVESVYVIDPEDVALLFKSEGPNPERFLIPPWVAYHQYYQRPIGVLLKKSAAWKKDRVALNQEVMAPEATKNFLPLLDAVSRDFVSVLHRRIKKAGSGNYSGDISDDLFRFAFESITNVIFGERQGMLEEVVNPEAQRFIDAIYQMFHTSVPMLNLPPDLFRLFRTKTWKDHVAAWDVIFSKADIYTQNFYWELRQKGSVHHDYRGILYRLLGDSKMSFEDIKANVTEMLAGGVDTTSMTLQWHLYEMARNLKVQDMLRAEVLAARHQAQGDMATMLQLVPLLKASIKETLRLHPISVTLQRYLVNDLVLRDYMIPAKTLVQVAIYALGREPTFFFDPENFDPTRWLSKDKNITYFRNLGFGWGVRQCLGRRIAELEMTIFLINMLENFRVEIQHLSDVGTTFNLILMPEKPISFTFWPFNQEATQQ
The assay is described as follows: H295R Steroid Biosynthesis Inhibition Assay - inhibition of pregnenolone (P) production catalyzed by CYP11A1 in NCI-H295R cells. The format is cell-based. The settings on record: 48 h, LC-MS/MS, read-out: Inh. of P IC50. How it is done: (§1) Steroid Biosynthesis Inhibition by test compounds in NCI-H295R cells (ATCC) was studied by measuring the cellular production of pregnenolone (P) catalyzed by CYP11A1 and the downstream steroid, testosterone (T). Cells were cultured in Dulbecco's modified eagle's medium F12 (DMEM/F12) with phenol red (Gibco, Cat. No. 11330032) supplemented with 2% UltroserG (Pall, Cat. No. 15950-017, USA), 1% ITS-Premix and 1% penicillin and streptomycin (Hyclone, Cat. No. SV30010, USA). Prior to the assay, cells were thawed and passed 4 times. The maximal passage number used for the assay was 10. For this assay, DMEM/F12 without phenol red supplemented with 10% charcoal-stripped fetal bovine serum (VivaCell, Cat. No. C3830-0500, USA) were used. In a 96-well plate, 60,000 cells/well were plated (90 μL/well) and incubated for 24 h. Test compounds, diluted in a serial dilution ranging from 1000 nM to 0.15 nM in the assay medium, were added to the plate. After 48 h of incubation, solution from each well were collected and transferred to individual 1.5 mL centrifuge tubes, and then 5 ng/mL deuterated testosterone (D3-testosterone) and 50 ng/mL deuterated pregnenolone (D4-pregnenolone) in 200 μL acetonitrile were added. After vigorously mixing for 5 min, the mixture was centrifuged at 12,700 rpm for 15 min. An aliquot of 250 μL supernatant was collected and dried under N2 stream. After addition of 150 μL Methanol:water (1:1, v/v) to the dried product, 50 μL sample of this solution was injected into the LC-MS/MS system for analysis.
(§2) The half-maximal inhibitory concentration (IC50) for steroid biosynthesis inhibition was determined by curve-fitting with the 4-variable inhibitory dose response equation using GraphPad Prism software.
(§3) Testosterone and pregnenolone were analyzed using Shimadzu LC30AD HPLC system (Shimadzu, Kyoto, Japan) coupled with AB SCIEX Qtrap 5500 triple quadrupole mass spectrometer (AB Sciex, Framingham, MA, USA) via ESI interface in the positive ionization mode. An ACQUITY UPLC BEH Shield RP18 column (1.7 μm, 2.1×50 mm, Milford, MA, USA) maintained at 40° C. was used to separate analytes and IS form the sample matrix.
(§4) The mobile phase was a mixture of 10 mM ammonium acetate in water containing 0.2% formic acid (A) and methanol containing 0.2% formic acid (B) at a flow rate of 0.6 mL/min. The gradient program was set as follows: from 0 min to 0.5 min, 60% B; from 0.5 min to 3.5 min, 90% B; from 3.5 min to 4.5 min, 90% B; from 4.51 min to 5.0 min, 60% B. The injection volume was […].
(§5) The MS/MS parameters were set as follows: ion spray voltage, 5500 V; curtain gas, 35 psi; Gas 1, 55 psi; Gas 2: 55 psi; temperature, […]. The optimized multiple reaction monitoring (MRM) fragmentation transitions and MS parameters of each analyte are summarized in Table 1.

The target in assay [2] is T2, testosterone (T) production in NCI-H295R cells (Homo sapiens, UniProt P05108).
T2 construct: testosterone measured by LC-MS/MS as downstream steroid
T2 sequence (P05108 40-521): T1 sequence (P05108 40-521)
In words: H295R Steroid Biosynthesis Inhibition Assay - inhibition of testosterone (T) production in NCI-H295R cells. The format is cell-based. The settings on record: 48 h, LC-MS/MS, read-out: Inh. of T IC50. How it is done:
as §1, §2, §3, §4, §5

Consider `NC(=O)[C@H]1CC[C@H](c2cc3oc(CN4Cc5ccccc5C4)cc(=O)c3o2)CC1` [Compound 46], for which the concentration for half-maximal inhibition (IC50) in assay [1] and in assay [2] was at most 40 nM each time.
As to `CP(C)(=O)c1ccc(-c2cc3oc(CN4Cc5ccccc5C4)cc(=O)c3o2)cc1` [Compound 50], the concentration for half-maximal inhibition (IC50) (in general, the concentration that gives 50% inhibition) in assay [1] is at least 100 nM; in assay [2], at least 101 nM.
Taken in the same sequence, the figures for `O=c1cc(CN2Cc3ccccc3C2)oc2cc([C@@H]3CC[C@@H](O)[C@@H](F)C3)oc12` [Compound 30] were at most 40 nM and at most 40 nM.
As to `CS(=O)(=O)N1CCC(N2CCc3cc(CN4Cc5ccccc5C4)ccc3C2=O)CC1` [Compound 64], the concentration for half-maximal inhibition (IC50) in assay [1] is at most 40 nM; in assay [2], 41 to 100 nM.
Regarding `CS(=O)(=O)N1CCCC(c2cc3oc(CN4Cc5ccccc5C4)cc(=O)c3o2)C1` (centres unmarked) [Compound 16], the IC50 was 40 to 100 nM in assay [1] and at least 101 nM in assay [2].
Consider `CS(=O)(=O)N1CCC(c2cc(Cl)c3cc(CN4Cc5ccccc5C4)ccc3n2)CC1` [Compound 77], for which the IC50 in assay [1] and in assay [2] was at most 40 nM throughout.
`CS(=O)(=O)N1CCC(COc2ccc(CN3CCc4ccccc4C3)c3cccnc23)CC1` [Compound 8]: the IC50 in assay [1] and in assay [2] was at most 40 nM each time.
`CNC(=O)N1CCC(c2cnc3cc(CN4Cc5ccccc5C4)ccc3n2)CC1` [Compound 115]: the IC50 in assay [1] and in assay [2] was at most 40 nM each time.
For the molecule `N#C[C@H]1CC[C@H](c2cc3oc(CN4Cc5ccccc5C4)cc(=O)c3o2)CC1` [Compound 48], the IC50 in assay [1] was at most 40 nM; in assay [2] it was 41 to 100 nM.
The corresponding values for `CS(=O)(=O)N1CCC(c2ccc3oc(CN4Cc5ccccc5C4)cc(=O)c3n2)CC1` [Compound 58] are at most 40 nM and at most 40 nM.
The corresponding values for `O=C(c1nccs1)N1CCC(c2cnc3cc(CN4Cc5ccccc5C4)ccc3n2)CC1` [Compound 109] are 40 to 100 nM and 41 to 100 nM.
The corresponding values for `CCCS(=O)(=O)N1CCC(c2cnc3cc(CN4Cc5ccccc5C4)ccc3n2)CC1` [Compound 92] are at most 40 nM and at most 40 nM.
Consider `O=C(c1ncc[nH]1)N1CCC(c2cnc3cc(CN4Cc5ccccc5C4)ccc3n2)CC1` [Compound 107], for which the IC50 in assay [1] is 40 to 100 nM; in assay [2], at least 101 nM.
Taken in the same sequence, the figures for `CS(=O)(=O)N1CCC(COc2coc(CN3CCc4sccc4C3)cc2=O)CC1` [Compound 5] were at least 100 nM and at least 101 nM.
Taken in the same sequence, the figures for `O=C(C1CC1)N1CCC(c2cnc3cc(CN4Cc5ccccc5C4)ccc3n2)CC1` [Compound 102] were 40 to 100 nM and 41 to 100 nM.
The corresponding values for `CS(=O)(=O)N1CCC(c2cnc3cc(CN4Cc5ccccc5C4)cnc3c2)CC1` [Compound 80] are at most 40 nM and at most 40 nM.
Take `CS(=O)(=O)N1CCC(c2cnc3cc(CN4Cc5ccc(F)cc5C4)ccc3n2)CC1` [Compound 87]: the IC50 in assay [1] and in assay [2] was at most 40 nM each time.
In the case of `CS(=O)(=O)N1CCC(c2cc(=O)n3cc(CN4Cc5ccccc5C4)ccc3n2)CC1` [Compound 62], the concentration for half-maximal inhibition (IC50) is 40 to 100 nM in assay [1] and at least 101 nM in assay [2].
Taken in the same sequence, the figures for `O=C(OC1CCCC1)N1CCC(c2cnc3cc(CN4Cc5ccccc5C4)ccc3n2)CC1` [Compound 114] were at most 40 nM and at most 40 nM.
The corresponding values for `CS(=O)(=O)N1CCC(c2cc(=O)c3cc(CN4Cc5ccccc5C4)ccc3o2)CC1` [Compound 60] are at most 40 nM and at most 40 nM.
With `O=c1cc(CN2Cc3ccccc3C2)oc2cc(C3CCC(O)C3)oc12` (centres unmarked) [Compound 35], the results for the IC50 in assay [1] and in assay [2] were at most 40 nM and 41 to 100 nM, respectively.
Taken in the same sequence, the figures for `CS(=O)(=O)N1CC=C(c2ccc3nc(CN4Cc5ccccc5C4)cnc3c2)CC1` [Compound 81] were at most 40 nM and 41 to 100 nM.
Consider `CS(=O)(=O)N1CCC(c2ccc3cc(CN4Cc5ccc(F)cc5C4)ccc3n2)CC1` [Compound 72], for which the 50% inhibitory concentration (IC50) in assay [1] and in assay [2] was at most 40 nM throughout.
For the molecule `CN(C)C(=O)N1CCC(c2cnc3cc(CN4Cc5ccccc5C4)ccc3n2)CC1` [Compound 121], the half-inhibitory concentration (IC50) in assay [1] was at most 40 nM; in assay [2] it was 41 to 100 nM.
Consider `CS(=O)(=O)N1C[C@@H]2[C@H](C1)[C@H]2c1cc2oc(CN3Cc4ccccc4C3)cc(=O)c2o1` [Compound 13, 5-(isoindolin-2-ylmethyl)-2-((1R,5S,6r)-3-(methylsulfonyl)-3-azabicyclo[3.1.0]hexan-6-yl)-7H-furo[3,2-b]pyran-7-one], for which the IC50 in assay [1] and in assay [2] was at most 40 nM in each case.
On to `CCNC(=O)N1CCC(c2cnc3cc(CN4Cc5ccccc5C4)ccc3n2)CC1` [Compound 116], for which the values for the IC50 in assay [1] and in assay [2] were 40 to 100 nM and at least 101 nM, respectively.
In the case of `O=c1cc(CN2Cc3ccccc3C2)oc2cc(C3CC4(COC4)C3)oc12` [Compound 25], the concentration for half-maximal inhibition (IC50) in assay [1] and in assay [2] was at most 40 nM in each case.
Regarding `O=C(NC1COC1)N1CCC(c2cnc3cc(CN4Cc5ccccc5C4)ccc3n2)CC1` [Compound 118], the figures for the half-maximal inhibitory concentration (IC50) in assay [1] and in assay [2] were at least 100 nM and at least 101 nM, respectively.
Taken in the same sequence, the figures for `O=S(=O)(N1CCC(c2cnc3cc(CN4Cc5ccccc5C4)ccc3n2)CC1)C(F)(F)F` [Compound 97] were 40 to 100 nM and at least 101 nM.
The corresponding values for `CC(C)NC(=O)N1CCC(c2cnc3cc(CN4Cc5ccccc5C4)ccc3n2)CC1` [Compound 117] are 40 to 100 nM and at least 101 nM.
With `COC(=O)N[C@H]1CC[C@H](c2cc3oc(CN4Cc5ccccc5C4)cc(=O)c3o2)CC1` [Compound 45], the IC50 in assay [1] and in assay [2] was at most 40 nM in each case.
For the molecule `CC(C)(C)NC(=O)N1CCC(c2cnc3cc(CN4Cc5ccccc5C4)ccc3n2)CC1` [Compound 119], the IC50 in assay [1] is at most 40 nM; in assay [2], 41 to 100 nM.
For the molecule `CS(=O)(=O)N1CCC(c2ccc3cc(CN4Cc5ccccc5C4)ccc3n2)CC1` [Compound 71], the IC50 in assay [1] and in assay [2] was at most 40 nM in each case.
As for `O=c1cc(CN2CCn3cccc3C2)oc2cc([C@H]3CC[C@H](O)CC3)oc12` [Compound 54], the IC50 in assay [1] is at most 40 nM; in assay [2] it was 41 to 100 nM.
The corresponding values for `CS(=O)(=O)N1CCC(n2cc3ccc(CN4Cc5ccccc5C4)cc3n2)CC1` [Compound 131] are at most 40 nM and at most 40 nM.
Taken in the same sequence, the figures for `O=c1cc(CN2Cc3ccccc3C2)oc2cc([C@H]3CC4CCC(C3)[C@H]4O)oc12` [Compound 33] were 40 to 100 nM and 41 to 100 nM.
Taken in the same sequence, the figures for `CS(=O)(=O)N1CCC(COc2coc(CN3CCn4cccc4C3)cc2=O)CC1` [Compound 3] were at most 40 nM and 41 to 100 nM.
On to `O=S(=O)(C1CCCC1)N1CCC(c2cnc3cc(CN4Cc5ccccc5C4)ccc3n2)CC1` [Compound 96], for which the IC50 in assay [1] and in assay [2] was at most 40 nM in each case.
As to `CS(=O)(=O)N1CCC(COc2coc(CN3CCn4c(Cl)ccc4C3)cc2=O)CC1` [Compound 4], the IC50 in assay [1] is at most 40 nM; in assay [2], 41 to 100 nM.
The corresponding values for `O=S(=O)(C1CC1)N1CCC(c2cnc3cc(CN4Cc5ccccc5C4)ccc3n2)CC1` [Compound 95] are at most 40 nM and at most 40 nM.

These data come from patent US20260327234A1, “NOVEL COMPOUNDS AS CYP11A1 INHIBITORS AND METHODS OF USE THEREOF” (Shenzhen Ionova Life Science Co., Ltd., priority 2023, published 2026).
